≈ marks a conversion by molar mass, not a printed value.
Columns and labels:
Homo sapiens = species: Homo sapiens; assay: Activation of Keap1/Cul3/Nrf2 in NHBE cells assessed as induction of HO-1 gene expression at 10 uM after 24 hrs by RT-PCR analysis relative to SFN; assay type: cell-based
[1] = Kinetic solubility of the compound at pH 7.4 by CLND method; assay type: physicochemical; settings: buffer, read-out: Kinetic_solubility
[2] = Activation of Keap1/Cul3/Nrf2 in human BEAS2B cells assessed as increase in NQO1 levels measured after 48 hrs; assay type: cell-based; settings: BEAS-2B
[3] = Binding affinity to FLAG/His-tagged Keap1 (unknown origin)/biotinylated full-length FLAG/His/Tev/Avi-tagged Cul3 (unknown origin) expressed in baculovirus infected Sf9 insect cells measured after 1 hr by TR-FRET assay; parameters: species or system Homo sapiens
[4] = Lipophilicity, log D of the compound at pH 7.4 by chromatographic method; assay type: physicochemical; settings: buffer
Keap1/Nrf2 = Keap1/Nrf2 (Homo sapiens, UniProt Q14145+Q16236); assay: Binding affinity to FLAG/His-tagged Keap1 (unknown origin)/biotinylated full-length FLAG/His/Tev/Avi-tagged NRF2 (unknown origin) expressed in baculovirus infected Sf9 insect cells measured after 1 hr by TR-FRET assay
Keap1/Nrf2, sequence (Q16236 whole entry): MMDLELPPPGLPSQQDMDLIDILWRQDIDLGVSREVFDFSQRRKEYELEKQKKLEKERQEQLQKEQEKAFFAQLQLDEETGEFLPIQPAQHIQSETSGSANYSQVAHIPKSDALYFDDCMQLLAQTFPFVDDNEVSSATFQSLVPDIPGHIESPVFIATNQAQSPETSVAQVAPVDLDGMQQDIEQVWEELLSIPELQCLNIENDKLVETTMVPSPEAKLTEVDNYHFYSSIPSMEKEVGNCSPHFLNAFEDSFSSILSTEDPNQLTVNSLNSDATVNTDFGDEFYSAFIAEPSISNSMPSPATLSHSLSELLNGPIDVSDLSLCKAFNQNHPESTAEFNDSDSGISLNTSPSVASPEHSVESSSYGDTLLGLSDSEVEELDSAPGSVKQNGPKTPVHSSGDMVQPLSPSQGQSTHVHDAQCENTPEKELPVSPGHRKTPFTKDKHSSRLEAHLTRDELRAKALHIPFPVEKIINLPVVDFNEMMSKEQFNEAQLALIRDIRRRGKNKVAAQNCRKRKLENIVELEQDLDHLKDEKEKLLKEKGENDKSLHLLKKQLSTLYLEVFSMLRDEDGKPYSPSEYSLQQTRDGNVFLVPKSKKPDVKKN
Keap1/Nrf2, sequence (Q14145 whole entry): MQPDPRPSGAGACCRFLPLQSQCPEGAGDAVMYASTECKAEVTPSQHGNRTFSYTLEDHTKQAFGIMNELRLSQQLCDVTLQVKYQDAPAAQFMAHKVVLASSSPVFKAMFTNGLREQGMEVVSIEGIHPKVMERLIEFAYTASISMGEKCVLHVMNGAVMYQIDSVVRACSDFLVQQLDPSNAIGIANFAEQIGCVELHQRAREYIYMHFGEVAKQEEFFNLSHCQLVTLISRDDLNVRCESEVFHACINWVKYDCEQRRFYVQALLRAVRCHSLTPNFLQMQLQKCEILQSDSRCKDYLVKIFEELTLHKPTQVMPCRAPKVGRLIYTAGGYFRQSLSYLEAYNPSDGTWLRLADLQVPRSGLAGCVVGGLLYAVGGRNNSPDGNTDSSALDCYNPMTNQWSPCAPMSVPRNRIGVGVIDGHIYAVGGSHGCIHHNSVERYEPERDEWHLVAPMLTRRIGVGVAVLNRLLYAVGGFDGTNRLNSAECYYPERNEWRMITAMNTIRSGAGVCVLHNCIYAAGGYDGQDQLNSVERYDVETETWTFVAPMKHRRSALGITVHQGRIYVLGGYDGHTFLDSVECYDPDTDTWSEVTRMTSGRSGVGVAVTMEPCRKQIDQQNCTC

Row | SMILES | fold change (FC) (Homo sapiens) | solubility kinetic [1] | EC50 [2] | pIC50 [3] | chromatographic logD [4] | IC50 (Keap1/Nrf2)
1 | CC(=O)N[C@@H](CSC(=S)NCCCC[S+](C)[O-])C(=O)O (stereo not given in full) | 5.8 | ≥ 357 µM | 1.58 µM | < 4 | -0.67 | > 100 µM
2 | CN(C)c1c(N(C)CCCNC(=S)SC[C@H](NC(=O)CC[C@H](N)C(=O)O)C(=O)NCC(=O)O)c(=O)c1=O |  |  | 1.58 µM |  |  | 
3 | C[S+]([O-])CCCCCN=C=S (stereo not given) | 0.35 | ≥ 458 µM |  | 4.1 | 3.12 | > 100 µM
4 | CCCCNCCSC(=S)NCCCC[S+](C)[O-] (stereo not given) | 0.08 | ≥ 420 µM |  | < 4 | 4.34 | > 100 µM
5 | C[S+]([O-])CCCN=C=S (stereo not given) | 0.47 | 331 µM (≈ 54 µg/mL) |  | < 4 | 0.85 | > 100 µM
6 | CC(C)(C)OC(=O)N1CCC(SC(=O)NCCCCN=C=S)CC1 | 4.01 | 77 µM (≈ 28.8 µg/mL) |  | 5.1 | 6.72 | 12.6 µM
7 | [O-][S+](CCCCN=C=S)c1ccccc1 (stereo not given) | 5.99 | 213 µM (≈ 51 µg/mL) |  | 4.3 | 4.11 | 50.1 µM
8 | O=S(=O)(CCCCN=C=S)CCN1CCOCC1 | 0.22 | 273 µM (≈ 79.8 µg/mL) |  | < 4 | 2.93 | > 100 µM
9 | C[S+]([O-])CCCCNC(=S)SCCCO (stereo not given) | 0.24 | ≥ 467 µM |  | < 4 | 0.68 | 25.1 µM
10 | O=C(NCCCCN=C=S)c1ccno1 | 2.65 | ≥ 473 µM |  | 4.2 | 3.27 | 63.1 µM
11 | CNC(=O)NCCCCNC(=S)SC1CCN(C(=O)OC(C)(C)C)CC1 | 0.59 | ≥ 377 µM |  | < 4 | 4.58 | > 100 µM
12 | S=C=NCCN1CCSCC1 | 0.21 | ≥ 367 µM |  | < 4 | 4.93 | > 100 µM
13 | C[S+]([O-])CCCCNC(=S)SCCSC(=S)NCCCC[S+](C)[O-] (stereo not given) | 0.74 | ≥ 425 µM |  | 4.3 | 1.9 | > 100 µM
14 | O=C(NCCCCN=C=S)NCc1ccccc1 | 6.42 | 247 µM (≈ 65.1 µg/mL) |  | 4.7 | 4.29 | 15.8 µM
15 | CC(C)(C)OC(=O)N1CCC(SC(=S)NCCCCNC(=O)Nc2ccc3c(c2)OCO3)CC1 | 55.6 | 17 µM (≈ 8.68 µg/mL) |  | 4.4 | 6.04 | 50.1 µM
16 | O=S(=O)(/C=C(\CO)CN1CCC(CN=C=S)CC1)c1ccccc1 | 25.3 | 187 µM (≈ 68.5 µg/mL) |  | 5.6 | 7.09 | 25.1 µM
17 | O=C(CCCCN=C=S)NCc1ccccc1 | 28 | ≥ 418 µM |  | 4.7 | 4.59 | 20 µM
18 | CC(=O)N[C@@H](CSC(=S)NCCCN(C)c1c(N(C)C)c(=O)c1=O)C(=O)O |  |  | 1.58 µM |  |  | 
19 | O=S(=O)(CC1(c2ccc(N=C=S)cc2)COC1)c1ccccc1 | 0.23 | 9 µM (≈ 3.11 µg/mL) |  | 4.3 | 4.21 | 39.8 µM

Row | SMILES | fold change (FC) (Homo sapiens) | solubility kinetic [1] | EC50 [2] | pIC50 [3] | chromatographic logD [4] | IC50 (Keap1/Nrf2)
20 | C[S+]([O-])CCCCNC(=S)SC[C@H](NC(=O)CC[C@H](N)C(=O)O)C(=O)NCC(=O)O (stereo not given in full) | 5.8 | ≥ 290 µM | 1.58 µM | < 4 | -0.75 | > 100 µM
21 | COC(=O)[C@]12CCC(C)(C)C[C@H]1[C@H]1C(=O)C=C3[C@@]4(C)C=C(C#N)C(=O)C(C)(C)[C@@H]4CC[C@@]3(C)[C@]1(C)CC2 [BARDOXOLONE METHYL] |  |  | 0.00871 µM |  |  | 
22 | O=C(NCCCCN=C=S)Nc1cccnc1 | 13.6 | ≥ 428 µM |  | 4.5 | 2.79 | 39.8 µM
23 | O=S1(=O)CCN(CCN=C=S)CC1 | 0.19 | ≥ 274 µM |  | < 4 | 2.33 | > 100 µM
24 | C[S+]([O-])CCCCNC(=S)SCCNC(=O)OC(C)(C)C (stereo not given) | 0.58 | ≥ 432 µM |  | < 4 | 3.12 | > 100 µM
25 | CN1CCC(SC(=S)NCCCCNC(=O)CC2CCCC2)CC1 | 31.3 | ≥ 256 µM |  | 4.5 | 3 | 50.1 µM
26 | Cl.O=C(NCCCCNC(=S)SC1CCNCC1)NC1CCCC1 | 3.46 | ≥ 323 µM |  | 4.6 | 1.52 | 50.1 µM
27 | COC(=O)[C@H](CSC(=S)NCCCC[S+](C)[O-])NC(C)=O (stereo not given in full) | 0.85 | ≥ 510 µM |  | < 4 | 1.04 | > 100 µM
28 | CN1CCC(SC(=S)NCCCCNC(=O)OCc2ccccc2Cl)CC1 | 6.26 | 280 µM (≈ 120 µg/mL) |  | 5.3 | 4.06 | 3.98 µM
29 | O=S1(=O)CCC(CN=C=S)C1 (stereo not given) | 0.37 | ≥ 639 µM |  | 4.4 | 1.82 | > 100 µM
30 | O=C(NCCCCN=C=S)Nc1ccncc1 | 15.3 | 400 µM (≈ 100 µg/mL) |  | 4.7 | 2.6 | 31.6 µM
31 | O=C(NCCCCN=C=S)c1cccnc1 | 1.78 | ≥ 289 µM |  | 4.1 | 2.63 | 50.1 µM
32 | Cc1ccccc1S(=O)(=O)CCCCN=C=S | 0.67 | 261 µM (≈ 70.3 µg/mL) |  | 5 | 5.52 | 31.6 µM
33 | CN(C)CCC[S+]([O-])CCCCN=C=S (stereo not given) | 0.27 | ≥ 250 µM |  | < 4 | 0.81 | > 100 µM
34 | CC(=O)N(C)CCS(=O)(=O)CCCCN=C=S | 0.29 | ≥ 340 µM |  | < 4 | 2.4 | > 100 µM
35 | O=S(=O)(CCCCN=C=S)c1ccccn1 | 2.24 | ≥ 331 µM |  | 4.3 | 3.85 | 31.6 µM
36 | C[S+]([O-])CCCCNC(=S)SCc1cccc([N+](=O)[O-])c1 (stereo not given) | 0.39 | 372 µM (≈ 129 µg/mL) |  | < 4 | 3.81 | > 100 µM
37 | O=C(NCCCCN=C=S)OCc1ccccc1Cl | 3.21 | 73 µM (≈ 21.8 µg/mL) |  | 5.2 | 6.35 | 5.01 µM

Reference: ChEMBL document CHEMBL4330129 (Bioorg Med Chem, 2019)
